Measurements published in PMC3767324, “Synthesis, Characterization, and BSA Binding Studies of Some New Benzamides Related to Schiff Base” (ISRN Organic Chemistry, 2013).
Values after ≈ are worked out from the molar mass of the structure shown. Values joined by “and” are separate entries in the source; they are usually repeats but may differ in a detail not shown here. Equal entries are not always repeated.

What was measured:
[1] = biological target: T1, bovine serum albumin (BSA) (Bos taurus, UniProt P02769); assay: energy transfer from BSA to compound (Forster theory); assay type: binding; settings: for J (spectral overlap): BSA emission / compound UV absorption; for R 0 (critical energy transfer distance): K^2 = 2/3, N = 1.311, Φ = 0.118
T1 construct: Bovine serum albumin (BSA), one of the major components in plasma protein; purchased Sigma Aldrich Bangalore
Source text: The binding distance (r) between a protein residue (donor) and a bound drug molecule (acceptor) can be calculated from Foster's nonradiative energy transfer theory. The efficiency of energy transfer E and the distance between the acceptor and donor r can be defined as the following equation [36]: (4) E=1−(F/F0)=R06/R06+r^6, where r is the distance between the acceptor and donor; F and F 0 are the fluorescence intensities of BSA in the presence of and in the absence of quencher, respectively; R 0 is the critical energy transfer distance when the transfer efficiency is 50%. It is given by the following equation: (5) R06=8.8×10^−25K^2N^−4ΦJ.
K ^2 is a factor describing the spatial orientation factor related to the geometry of the donor and acceptor of dipoles; N is the refractive index of medium; Φ is the fluorescence quantum yield of the donor in the absence of acceptor; J is the effect of spectra overlap between the fluorescence emission spectrum of the donor and the UV-vis absorption spectrum of the acceptor, and J can be calculated by (6): (6) J=f(λ)ε(λ)λ^4Δλ/ΣF(λ)Δλ, where F(λ) is the corrected fluorescence intensity of the donor in the wavelength range from λ to λ + Δλ and ε(λ) is the molar absorption coefficient of the acceptor at wavelength λ. In the present case, K ^2 = 2/3, N = 1.311, and Φ = 0.118 for BSA molecules, respectively.

[2] = superoxide radical scavenging assay (NBT, xanthine-xanthine oxidase system); assay type: biochemical; settings: NBT reduction, pH 7.8, 560 nm, three replicates
Method: Superoxide radical scavenging activity was measured as described by Kovala-Demertzi et al., (2004). The assay is based on the reduction of nitroblue tetrazolium (NBT) by superoxide ions generated by the xanthine-xanthine oxidase system (X–XO). The reaction system contained 0.2 mM xanthine and 0.6 mM NBT in 0.1 M phosphate buffer, pH 7.8. The tested compounds were dissolved in methanol. The reaction was started by addition of XO (0.07 U mL^−1), an activity which allowed to yield the absorbance change between 0.03 and 0.04 per minute, at 560 nm. The extent of NBT reduction was followed spectrophotometrically, by measuring the increase of the absorbance at 560 nm. All the experiments were replicated three times. The IC50 of each compound was defined as the concentration which inhibited 50% of the NBT reduction by O2 ^•− produced in the X–XO system.
Superoxide anion radical is normally initially formed, and its effects can be magnified because it produces other kinds of free radicals and oxidizing agents. The enzymatic superoxide anion radical was generated by the xanthine/xanthine oxidase reaction system. The production of superoxide was estimated by the nitroblue tetrazolium method. […] Differently, in the m-position, methoxy and hydroxyl groups act as an electron-withdrawing properties, ([…]), which are possible for providing a destabilizing effect.

[3] = DPPH free radical scavenging activity; settings: DPPH 0.1 mM, absorbance at 517 nm; triplicate, mean ± SD
Method: The capacity to scavenge the stable free radical 2,2-diphenyl-1-picrylhydrazyl (DPPH) was monitored according to the Blois method. The test samples (10–100 μL) were mixed with 1 mL of DPPH (0.1 mM) solution and filled up with methanol to a final volume of 4 mL. Absorbance of the resulting solution was measured at 517 nm in a visible spectrophotometer (Model 166, Systronics, India). The free radical scavenging rate of the reaction solution was calculated as a percentage (%) of DPPH decolouration using the equation (1) I(%)=(Ablank−Asample/Ablank)×100, where A blank is the absorbance of the control reaction mixture excluding the test compounds, and A sample is the absorbance of the test compounds. Radical scavenging potential was expressed as IC50 value, which represents the sample concentration at which 50% of the DPPH radicals were scavenged. Tests were carried out in triplicate and the results were expressed as mean values ± standard deviations.
DPPH radical scavenging activity evaluation is a standard assay in antioxidant activity studies and offers a rapid technique for screening the radical scavenging activity of specific compounds [24]. The free radical scavenging activity of newly synthesized compounds was tested by their ability to bleach the stable radical DPPH. The activity was monitored by following the absorption at 517 nm in a visible spectrophotometer. In the presence of any free radical scavenger, this odd electron pairs up and causes the diminishing of absorption band which is proportional to the number of electrons taken up. The activity was studied at different concentrations for each compound. […] Resulting from a color change from purple to yellow the absorbance decreased when the antioxidant molecule can quench DPPH free radical through donation of hydrogen atom or by electron donating to form a stable DPPH molecule.

T1 sequence (P02769 25-607): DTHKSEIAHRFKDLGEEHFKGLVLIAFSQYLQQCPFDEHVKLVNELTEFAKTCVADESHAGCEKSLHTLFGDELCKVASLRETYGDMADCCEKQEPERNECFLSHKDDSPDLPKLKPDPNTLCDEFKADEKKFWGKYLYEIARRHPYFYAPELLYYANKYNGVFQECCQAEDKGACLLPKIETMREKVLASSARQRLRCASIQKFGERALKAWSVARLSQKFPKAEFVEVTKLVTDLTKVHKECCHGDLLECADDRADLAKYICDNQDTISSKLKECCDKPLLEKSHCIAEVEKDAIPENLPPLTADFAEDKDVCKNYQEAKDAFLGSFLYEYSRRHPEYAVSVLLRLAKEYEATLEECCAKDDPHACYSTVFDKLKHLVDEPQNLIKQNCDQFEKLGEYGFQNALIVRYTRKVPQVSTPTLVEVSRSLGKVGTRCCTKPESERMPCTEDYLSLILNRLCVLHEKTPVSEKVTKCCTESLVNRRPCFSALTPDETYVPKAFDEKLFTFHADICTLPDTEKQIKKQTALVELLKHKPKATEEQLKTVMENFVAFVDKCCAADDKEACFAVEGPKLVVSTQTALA

Row | SMILES | E (efficiency of energy transfer) [1] | r (binding distance between donor BSA and acceptor) [1] [nm] | J (spectral overlap) [1] | R 0 (critical energy transfer distance) [1] [nm] | melting point [°C] | IC50 Superoxide [2] [µg/mL] | IC50 DPPH [3]
1 | CC(=O)N(C(=O)c1cc(F)ccc1F)c1ccc(N=Cc2cc3ccccc3o2)cc1 [Compound 5a, N-acetyl-N-(4-((benzofuran-2-ylmethylene)amino)phenyl)-2,5-difluorobenzamide] | 0.11 | 3.77 | 1.05 × 10^−14 cm^3 L mol^−1 | 2.51 | 197 | 91.3 ± 0.26 (≈ 218 µM) | 97.5 ± 0.37 µg/mL (≈ 233 µM)
2 | CC(=O)N(C(=O)c1ccccc1)c1ccc(N=Cc2cc3ccccc3o2)cc1 [Compound 5c, N-acetyl-N -(4-((benzofuran-2-ylmethylene)amino)phenyl)benzamide] | 0.14 | 4.11 | 3.05 × 10^−14 cm^3 L mol^−1 | 3.04 | 192 | 60.9 ± 0.28 (≈ 159 µM) | 61.7 ± 0.55 µg/mL (≈ 161 µM)
3 | CC(=O)N(C(=O)c1cc(F)c(F)c(F)c1)c1ccc(N=Cc2cc3ccccc3o2)cc1 [Compound 5g, N-acetyl-N-(4-(benzofuran-2-ylmethyleneamino)phenyl)-3,4,5-trifluorobenzamide] | 0.31 | 3.07 | 2.37 × 10^−14 cm^3 L mol^−1 | 2.86 | 190 | 123 ± 0.44 (≈ 282 µM) | > 100 µg/mL and >125 µg/mL
4 | CC(=O)N(C(=O)c1cc(F)cc(F)c1)c1ccc(N=Cc2cc3ccccc3o2)cc1 [Compound 5h, N-acetyl-N-(4-((benzofuran-2-ylmethylene)amino)phenyl)-3,5-difluorobenzamide] | 0.15 | 2.93 | 4.91 × 10^−14 cm^3 L mol^−1 | 2.16 | 187 | 96.1 ± 0.31 (≈ 230 µM) | > 100 µg/mL and 100 ± 0.19 µg/mL
5 | COc1ccc(C(=O)N(C(C)=O)c2ccc(N=Cc3cc4ccccc4o3)cc2)cc1 [Compound 5i, N-acetyl-N-(4-(benzofuran-2-ylmethyleneamino)phenyl)-4-methoxybenzamide] | 0.33 | 3.17 | 2.79 × 10^−14 cm^3 L mol^−1 | 2.83 | 205 | 14.3 ± 0.23 (≈ 34.7 µM) | 18.5 ± 0.17 µg/mL (≈ 44.9 µM)
6 | CC(=O)N(C(=O)c1ccc(O)cc1)c1ccc(N=Cc2cc3ccccc3o2)cc1 [Compound 5j, N-acetyl-N-(4-((benzofuran-2-ylmethylene)amino)phenyl)-4-hydroxybenzamide] | 0.14 | 4.09 | 4.26 × 10^−14 cm^3 L mol^−1 | 3.02 | 213 | 11.6 ± 0.04 (≈ 29.1 µM) | 15.3 ± 0.11 µg/mL (≈ 38.4 µM)
